These results are taken from patent US20230048132A1, “CYCLIN-DEPENDENT KINASE INHIBITORS” (SPV THERAPEUTICS INC., priority 2018, published 2023).

The target in one series is T1, CDK6-CYCLIND3 (Homo sapiens, UniProt Q00534).
T1 construct: purchased Carna
Briefly: CDK inhibition assay (microfluidic LabChip, IC50 format). The class given is biochemical.

Another series has as its target T2, CDK9-CYCLINT1 (Homo sapiens, UniProt P50750).
T2 construct: purchased Carna
Described as above. It is filed as biochemical.

The next series concerns the target T3, CDK2-CYCLINA (Homo sapiens, UniProt P24941).
T3 construct: purchased Millipore
Described as above. The class given is biochemical.

The next series addresses CDK4-CYCLIND1 (Homo sapiens, UniProt P11802). The description is as above.
The target of another series is T4, CDK2-CYCLINE (Homo sapiens, UniProt P24941).
T4 construct: purchased Millipore
The description is as above. It is filed as biochemical. Particulars: Table 3; purified enantiomers; read-out: CDK2-E (E1/E2).

The test system of a further series is all cell lines tested. Briefly: 2D cell proliferation assay, geometric mean over the cell line panel. The following applies: Table 5 lower part; geometric mean over the 8-line panel; read-out: Geomean abs. IC50 value. It is filed as cell-based. The protocol:
(§1) Viability of the cells was analyzed by using the CellTiter-Blue® Cell Viability Assay (Promega), and was performed according to manufacturer's instructions. Briefly, cells were harvested from exponential phase cultures (Chapter 6.6), counted and plated in 96-well flat-bottom microtiter plates at a cell density of 4,000-60,000 cells/well in a volume of 140 μl per well. After a 24 hours recovery period, 10 μL cell culture medium (six control wells/plate) or culture medium with test compound were added (Chapter 6.2). The compounds were applied at five concentrations in full-log increments up to 100 μM in duplicate. Cultures were incubated at 37° C. and 5% CO2 in a humidified atmosphere for another three days. After three days of treatment, 20 μl/well CellTiter-Blue® reagent was added. Following incubation with CellTiter-Blue® reagent for up to four hours, fluorescence (FU) was measured by using the Enspire Multimode Plate Reader (excitation λ=570 nm, emission λ=600 nm). For calculations, the mean values of duplicate/sextuplicate (untreated control) data were used.
(§2) IC values are reported as relative IC50 values and absolute IC50 and IC70 values. […] The absolute IC70 value gives the concentration of the test compound that achieves T/C=30%. The relative IC50 value is the concentration of test compound that gives a response halfway between the top and bottom plateau of the sigmoidal concentration-response curve (inflection point of the curve). Calculation was done by 4parameter non-linear curve fit (Oncotest Data Warehouse Software).
(§3) If an IC50 or IC70 value could not be determined within the examined dose range (because a compound was either too active or lacked activity), the lowest or highest concentration studied was used for calculation of the geometric mean value.
The overall potency of a compound was determined by the geometric mean IC50/IC70 values of all individual IC50/IC70 values. In the heatmap representation of IC50 and IC70 values, the distribution of the IC50 or IC70 values obtained for a test compound in the individual cell lines is given in relation to the geometric mean IC50 or IC70 value, obtained over all PDX models tested. The individual IC values range from 1/32-fold geometric mean IC (corresponding to very potent compound activity or high tumor sensitivity) to 32-fold geometric mean IC (corresponding to lack of compound activity or tumor resistance). The heatmap presentation, therefore, represents an antiproliferative “fingerprint” profile of a test compound.

For the next series, the system named is MAXFTN MDA-MB-231 (ER−). Briefly: 2D cell proliferation assay (CellTiter-Blue). It is filed as cell-based. Particulars: Homo sapiens, 72 h, three days of treatment, read-out: abs. IC50. The procedure: as §1
(§4) An assay was considered fully evaluable if the following quality control criteria were fulfilled: • control/background ratio>3.0-Z′-factor calculated within the assay plate>0.5 [7]—coefficient of variation in the growth control wells <30%
(§5) Drug effects were expressed in terms of the percentage of the fluorescence signal, obtained by comparison of the mean signal in the treated wells with the mean signal of the untreated controls (expressed by the test-versus-control value, T/C-value [%]):
as §2, §3
On the technique in general: Resazurin is reduced to fluorescent resorufin, in cell work by metabolically active cells.

Another series concerns MEXF WM-266-4. Briefly: 2D cell proliferation assay (CellTiter-Blue). The following applies: Homo sapiens, 72 h, three days of treatment, read-out: abs. IC50. The class given is cell-based. The protocol:
as §1, §4, §5, §2, §3

In the next series the test system is LXFA A549. Briefly: 2D cell proliferation assay (CellTiter-Blue). Particulars: Homo sapiens, 72 h, three days of treatment, read-out: abs. IC50. It is filed as cell-based. The protocol:
as §1, §4, §5, §2, §3

The next series relates to LXFL NCl-H1299. Briefly: 2D cell proliferation assay (CellTiter-Blue). Particulars: 72 h, three days of treatment, read-out: abs. IC50. The class given is cell-based. The protocol:
as §1, §4, §5, §2, §3

For the next series, the system named is MAXFTN ZR-75-1 (ER+). Briefly: 2D cell proliferation assay (CellTiter-Blue). The class given is cell-based. Particulars: Homo sapiens, 72 h, three days of treatment, read-out: abs. IC50. The protocol:
as §1, §4, §5, §2, §3

Another series relates to MAXFLB MCF7 (ER+). Briefly: 2D cell proliferation assay (CellTiter-Blue). The class given is cell-based. Particulars: Homo sapiens, 72 h, three days of treatment, read-out: abs. IC50. The procedure: as §1, §4, §5, §2, §3
The subject of a further series is LEXFAM MV4-11. Briefly: 2D cell proliferation assay (CellTiter-Blue). The class given is cell-based. The following applies: Homo sapiens, 72 h, three days of treatment, read-out: abs. IC50. The procedure:
as §1, §4, §5, §2, §3

Another series deals with LEXFAL MOLT-4. Briefly: 2D cell proliferation assay (CellTiter-Blue). It is filed as cell-based. Particulars: Homo sapiens, 72 h, three days of treatment, read-out: abs. IC50. The procedure:
as §1, §4, §5, §2, §3

The target of the next series is CDK7 CyclinH (Homo sapiens, UniProt P50613). Briefly: CDK inhibition assay (microfluidic LabChip, IC50 format). The class given is biochemical. The following applies: Table 4a.
Sequence of CDK7 CyclinH (P50613 whole entry): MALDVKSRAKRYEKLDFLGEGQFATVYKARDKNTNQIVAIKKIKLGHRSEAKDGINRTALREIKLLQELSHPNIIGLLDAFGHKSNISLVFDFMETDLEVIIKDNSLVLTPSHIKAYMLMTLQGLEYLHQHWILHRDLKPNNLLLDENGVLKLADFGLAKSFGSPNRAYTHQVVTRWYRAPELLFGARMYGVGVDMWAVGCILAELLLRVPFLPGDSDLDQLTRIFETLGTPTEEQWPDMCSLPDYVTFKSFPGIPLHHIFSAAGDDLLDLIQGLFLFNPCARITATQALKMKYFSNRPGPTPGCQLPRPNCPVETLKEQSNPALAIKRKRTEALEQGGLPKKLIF
Sequence of CDK7 CyclinH (P51946 whole entry partner): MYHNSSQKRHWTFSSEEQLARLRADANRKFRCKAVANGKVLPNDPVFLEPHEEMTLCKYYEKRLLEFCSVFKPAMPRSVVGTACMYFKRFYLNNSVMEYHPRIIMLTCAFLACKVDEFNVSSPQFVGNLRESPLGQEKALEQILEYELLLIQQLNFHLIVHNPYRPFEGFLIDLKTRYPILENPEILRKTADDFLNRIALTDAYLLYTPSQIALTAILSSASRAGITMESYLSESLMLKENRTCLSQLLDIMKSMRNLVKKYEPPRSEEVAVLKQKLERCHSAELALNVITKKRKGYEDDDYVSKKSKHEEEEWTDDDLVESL
Sequence of CDK7 CyclinH (P51948 whole entry partner): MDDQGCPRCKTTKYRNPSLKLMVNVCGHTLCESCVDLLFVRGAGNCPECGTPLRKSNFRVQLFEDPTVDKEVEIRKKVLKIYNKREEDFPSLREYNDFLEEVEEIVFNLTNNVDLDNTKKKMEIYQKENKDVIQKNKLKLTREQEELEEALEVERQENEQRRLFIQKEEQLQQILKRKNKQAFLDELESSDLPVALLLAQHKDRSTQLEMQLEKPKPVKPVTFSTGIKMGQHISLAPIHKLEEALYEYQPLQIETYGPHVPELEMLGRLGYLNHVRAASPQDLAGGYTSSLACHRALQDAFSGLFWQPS
Series [1] in a line: Pharmacokinetics after IV bolus. Particulars: rat, plasma; rats; IV bolus 30 mg/kg; N = 3. The class given is in vivo.
Procedure: (§6) Nonclinical pharmacokinetic (PK) parameters of lead CDK4/6/9 inhibitors were determined in an intravenous (IV) and oral study (p.o.) conducted in rats. Lead compounds were each administered as a single oral dose at 100 mg/kg or by IV bolus via the caudal vein at the dose of 30 mg/kg. Blood samples were collected at 0.25, 0.5, 1, 2, 4, 8, 12, and 24 hours post i.v. administration, and at 1, 2, 4, 8, 24 and 48 hours post oral administration. Plasma was processed for drug concentration analysis using a validated LCMS/MS method, and PK parameters were calculated by using WinNonlin.
Series [2] is described as follows: Pharmacokinetics after oral administration. The class given is in vivo. The following applies: rat, plasma, rats.
Procedure: as §6
[3] abbreviates: Table 3, purified enantiomers, read-out: CDK6 (E1/E2).
The mark [4] stands for this setting: Table 3, purified enantiomers, read-out: CDK9-T (E1/E2).
The mark [5] stands for this setting: Table 3, purified enantiomers, read-out: CDK2-A (E1/E2).
Setting [6] is: CDK4 (E1/E2), Table 3, purified enantiomers.
Setting [7] is: oral administration 100 mg/kg, N = 3.

Read-outs that look alike come from different tables or passages of the source.

T1 sequence (Q00534 whole entry): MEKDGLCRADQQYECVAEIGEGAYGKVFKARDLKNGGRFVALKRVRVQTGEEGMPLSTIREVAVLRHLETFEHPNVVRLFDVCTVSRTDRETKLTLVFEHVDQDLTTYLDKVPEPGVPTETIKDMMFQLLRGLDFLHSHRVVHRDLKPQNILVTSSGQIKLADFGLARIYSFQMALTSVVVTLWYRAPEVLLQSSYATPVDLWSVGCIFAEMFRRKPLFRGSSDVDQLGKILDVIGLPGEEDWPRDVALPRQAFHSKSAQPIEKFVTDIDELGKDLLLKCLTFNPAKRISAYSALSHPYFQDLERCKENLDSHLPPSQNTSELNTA
T1 sequence (P30281 whole entry partner): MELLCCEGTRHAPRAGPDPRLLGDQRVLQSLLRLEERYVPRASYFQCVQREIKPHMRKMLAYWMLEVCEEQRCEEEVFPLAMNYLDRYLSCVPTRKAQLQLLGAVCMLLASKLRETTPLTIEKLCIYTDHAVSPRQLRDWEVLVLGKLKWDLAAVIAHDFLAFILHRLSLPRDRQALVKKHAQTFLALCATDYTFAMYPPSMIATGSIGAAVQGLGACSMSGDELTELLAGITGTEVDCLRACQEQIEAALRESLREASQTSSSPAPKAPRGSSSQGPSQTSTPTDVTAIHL
T2 sequence (P50750 whole entry): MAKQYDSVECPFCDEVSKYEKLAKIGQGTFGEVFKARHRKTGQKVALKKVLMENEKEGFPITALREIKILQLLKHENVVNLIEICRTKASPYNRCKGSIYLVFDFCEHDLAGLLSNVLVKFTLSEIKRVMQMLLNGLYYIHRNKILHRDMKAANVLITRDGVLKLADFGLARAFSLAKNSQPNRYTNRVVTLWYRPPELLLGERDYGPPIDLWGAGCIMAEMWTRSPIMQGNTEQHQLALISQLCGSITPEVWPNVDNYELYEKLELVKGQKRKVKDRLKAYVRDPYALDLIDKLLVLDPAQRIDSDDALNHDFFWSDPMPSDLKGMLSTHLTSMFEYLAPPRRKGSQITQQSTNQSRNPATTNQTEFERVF
T2 sequence (O60563 whole entry partner): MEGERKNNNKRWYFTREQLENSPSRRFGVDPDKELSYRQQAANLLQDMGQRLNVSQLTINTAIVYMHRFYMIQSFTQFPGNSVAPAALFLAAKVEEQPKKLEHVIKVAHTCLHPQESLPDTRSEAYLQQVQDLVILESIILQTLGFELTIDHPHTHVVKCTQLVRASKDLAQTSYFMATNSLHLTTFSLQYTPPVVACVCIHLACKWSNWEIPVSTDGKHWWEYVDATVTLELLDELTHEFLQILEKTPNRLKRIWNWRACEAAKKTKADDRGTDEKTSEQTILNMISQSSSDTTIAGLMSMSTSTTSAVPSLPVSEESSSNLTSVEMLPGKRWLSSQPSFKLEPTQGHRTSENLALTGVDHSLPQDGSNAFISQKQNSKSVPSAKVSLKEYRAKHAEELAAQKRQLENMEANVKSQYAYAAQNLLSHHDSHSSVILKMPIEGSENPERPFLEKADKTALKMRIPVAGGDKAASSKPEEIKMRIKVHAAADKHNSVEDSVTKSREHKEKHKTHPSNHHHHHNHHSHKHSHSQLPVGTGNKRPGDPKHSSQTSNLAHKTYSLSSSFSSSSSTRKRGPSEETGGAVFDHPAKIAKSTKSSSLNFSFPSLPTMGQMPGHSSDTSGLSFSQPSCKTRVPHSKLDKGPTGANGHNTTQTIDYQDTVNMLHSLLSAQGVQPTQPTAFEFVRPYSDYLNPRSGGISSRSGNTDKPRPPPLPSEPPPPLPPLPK
Sequence of CDK4-CYCLIND1 (P11802 whole entry): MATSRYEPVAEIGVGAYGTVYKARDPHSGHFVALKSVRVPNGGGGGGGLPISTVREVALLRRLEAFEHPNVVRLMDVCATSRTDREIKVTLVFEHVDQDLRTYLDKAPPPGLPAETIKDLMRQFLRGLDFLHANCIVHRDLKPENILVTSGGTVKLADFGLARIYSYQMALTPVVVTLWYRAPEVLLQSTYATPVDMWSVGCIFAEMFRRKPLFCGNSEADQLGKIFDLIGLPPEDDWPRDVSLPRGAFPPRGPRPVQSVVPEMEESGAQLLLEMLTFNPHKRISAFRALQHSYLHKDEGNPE
Sequence of CDK4-CYCLIND1 (P24385 whole entry partner): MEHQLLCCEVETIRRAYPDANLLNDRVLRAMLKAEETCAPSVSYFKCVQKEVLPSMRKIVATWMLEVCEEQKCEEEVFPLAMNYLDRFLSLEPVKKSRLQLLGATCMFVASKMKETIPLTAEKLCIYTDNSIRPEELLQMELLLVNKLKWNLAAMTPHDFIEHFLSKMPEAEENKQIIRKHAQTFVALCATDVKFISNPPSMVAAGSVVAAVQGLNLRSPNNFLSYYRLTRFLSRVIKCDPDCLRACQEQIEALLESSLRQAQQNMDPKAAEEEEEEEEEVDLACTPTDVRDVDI

Take `O=C1NCC[C@@]12Cc1cnc(Nc3ccc(N4CCNCC4)cn3)nc1N(C1CCCC1)C2=O` [Example D58, (S)-8-cyclopentyl-2-((5-(piperazin-1-yl)pyridin-2-yl)amino)-5,8-dihydro-7H-spiro[pyrido[2,3-d]pyrimidine-6,3′-pyrrolidine]-2′,7-dione]: the IC50 at CDK6-CYCLIND3 (setting [3]) worked out at 3.26 nM; at CDK9-CYCLINT1 (setting [4]), 198 nM; at CDK2-CYCLINA (setting [5]), 3120 nM; at CDK4-CYCLIND1 (setting [6]), 2.96 nM; on CDK2-CYCLINE, 4240 nM.
For the compound `O=C1NCC[C@@]12Cc1cnc(Nc3ccc(N4CCNCC4)c(F)c3)nc1N(C1CCCC1)C2=O` [Example D50, (S)-8-cyclopentyl-2-((3-fluoro-4-(piperazin-1-yl)phenyl)amino)-5,8-dihydro-7H-spiro[pyrido[2,3-d]pyrimidine-6,3′-pyrrolidine]-2′,7-dione], the IC50 on CDK6-CYCLIND3 (setting [3]) was 1.29 nM; at CDK9-CYCLINT1 (setting [4]), 4.37 nM; in the series with all cell lines tested it was 173 nM; on CDK2-CYCLINA (setting [5]), 29.1 nM; at CDK4-CYCLIND1 (setting [6]), 0.78 nM; at CDK2-CYCLINE, 62.4 nM. In addition, the IC50 was found to be 150 nM with MAXFTN MDA-MB-231 (ER−); 46 nM with MEXF WM-266-4; 338 nM in the series on LXFA A549; 187 nM in the series on LXFL NCl-H1299; 23300 nM in the series on MAXFTN ZR-75-1 (ER+); 80 nM in the series with MAXFLB MCF7 (ER+). Besides, the IC50 is at most 10 nM with LEXFAM MV4-11 and 101 nM in the series with LEXFAL MOLT-4.
As a reminder, the Cmax is the peak of the concentration-time curve. Usually clearance stands for the rate of elimination divided by the concentration. A low value points to inefficient removal. Usually half-life stands for the time needed for the level to fall by half in the phase considered. The bioavailability is the share of a dose that reaches the circulation, judged against a reference dose that is usually intravenous. Usually AUC stands for concentration integrated over time. Low readings indicate low exposure, high ones high exposure. For orientation: MRT means the average time that molecules of a dose stay in the body. Take `CC(C)N1CCN(c2ccc(Nc3ncc4c(n3)N(C3CCCC3)C(=O)[C@]3(CCNC3=O)C4)cc2)CC1` [Example D145, (S)-8-cyclopentyl-2-((4-(4-isopropylpiperazin-1-yl)phenyl)amino)-5,8-dihydro-7H-spiro[pyrido[2,3-d]pyrimidine-6,3′-pyrrolidine]-2′,7-dione]: the IC50 against CDK7 CyclinH turned out to be 153 nM; at CDK6-CYCLIND3 (Table 4a, read-out: CDK6 CyclinD3 IC50) it was 1.65 nM; on CDK9-CYCLINT1 (Table 4a, read-out: CDK9 CyclinT1 IC50), 5.02 nM; in the series with all cell lines tested it was 189 nM; at CDK2-CYCLINA (Table 4a, read-out: CDK2 CyclinA IC50), 21.7 nM; at CDK4-CYCLIND1 (CDK4 CyclinD1 IC50, Table 4a, a second value in parentheses for some compounds), 0.784 nM. Besides, the IC50 with MAXFTN MDA-MB-231 (ER−) was 300 nM; in the series with MEXF WM-266-4, 47 nM; in the series on LXFA A549, 148 nM; in the series with LXFL NCl-H1299, 108 nM; in the series with MAXFTN ZR-75-1 (ER+), at least 100000 nM; with MAXFLB MCF7 (ER+), 88 nM. The IC50 is at most 10 nM in the series with LEXFAM MV4-11 and 84 nM in the series on LEXFAL MOLT-4. Besides, the Cmax in series [1] is 7730 ng/mL; in series [2] (setting [7]) it was 4470 ng/mL. Moreover, in series [1], the clearance is 35.2 mL/min/kg. Besides, the half-life in series [1] is 1.93 h; in [2] (setting [7]), 5.6 h. Moreover, the bioavailability in [2] (oral 100 mg/kg versus IV 30 mg/kg, read-out: BIOAVAILABILITY F) was found to be 43.8%. For the same compound, in series [2] (setting [7]), the AUC amounted to 21500 ng·h/mL. Further, the MRT in [2] (setting [7]) was determined as 4.37 h.
Consider `O=C1NCC[C@]12Cc1cnc(Nc3ccc(N4CCNCC4)cc3)nc1N(C1CCCC1)C2=O` [Example D55, (R)-8-cyclopentyl-2-((4-(piperazin-1-yl)phenyl)amino)-5,8-dihydro-7H-spiro[pyrido[2,3-d]pyrimidine-6,3′-pyrrolidine]-2′,7-dione], for which the IC50 was determined as 519 nM on CDK6-CYCLIND3 (setting [3]); 1800 nM on CDK9-CYCLINT1 (setting [4]); 6000 nM on CDK2-CYCLINA (setting [5]); 251 nM against CDK4-CYCLIND1 (setting [6]); 8880 nM on CDK2-CYCLINE.
